From ChEMBL document CHEMBL1201862, “PubChem BioAssay data set” (2004)
Active and inactive are the calls of the source.

Key:
[1] = A Cell Based Secondary Assay To Explore Cytotoxicity of Compounds that Sensitize Mycobacterium Tuberculosis to Beta-Lactam Antibiotics.; assay type: functional
[2] = alpha-synuclein stem-loop luciferase translation blockers – H4 neuroglioma cells, luminescence, confirmation (AID 1988); assay type: functional, cell-based
[3] = Luminescence Cell-Based Dose Response HTS to Identify Inhibitors of 5'UTR Stem-Loop Driven Prion Protein mRNA Translation in H4 Neuroglioblastoma Cells. [Related pubchem assays: 1827 (Project Summary), 1813 (Primary HTS)]; assay type: functional
[4] = viability loss in Vero cells – cytotoxicity control for Vif-APOBEC3G degradation inhibitor project, dose response (AID 1117358); assay type: functional; details: Vero
NS3 = NS3 (Hepatitis C virus, UniProt A3EZJ3); assay: PubChem AID 2173; parameters: species or system Hepacivirus hominis
NS3, sequence (A3EZJ3 whole entry): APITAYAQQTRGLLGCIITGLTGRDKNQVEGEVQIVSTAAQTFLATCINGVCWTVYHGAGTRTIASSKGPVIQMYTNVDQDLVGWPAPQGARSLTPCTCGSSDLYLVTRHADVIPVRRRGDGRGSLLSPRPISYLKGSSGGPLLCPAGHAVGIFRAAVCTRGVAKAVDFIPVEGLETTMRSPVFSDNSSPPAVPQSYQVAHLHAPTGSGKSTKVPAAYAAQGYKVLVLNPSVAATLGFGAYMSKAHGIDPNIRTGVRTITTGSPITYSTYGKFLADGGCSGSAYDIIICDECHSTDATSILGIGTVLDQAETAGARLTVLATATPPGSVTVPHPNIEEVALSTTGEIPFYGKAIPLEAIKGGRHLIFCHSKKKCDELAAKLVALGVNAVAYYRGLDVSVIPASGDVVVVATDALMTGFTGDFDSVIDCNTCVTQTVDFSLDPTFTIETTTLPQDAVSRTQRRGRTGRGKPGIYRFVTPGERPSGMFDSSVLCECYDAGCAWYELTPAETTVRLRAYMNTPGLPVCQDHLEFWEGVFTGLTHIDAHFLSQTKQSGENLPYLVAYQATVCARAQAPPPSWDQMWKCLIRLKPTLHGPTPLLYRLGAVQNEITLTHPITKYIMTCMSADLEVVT

[5] = luciferase reporter signal suppression in cells – H4 neuroglioma cells, luminescence, dose response (AID 1990); assay type: functional, cell-based
Streptococcus [6] = assay: Luminescence Microorganism-Based Dose Response Follow up to Identify Compounds Cytotoxic to Streptococcus. [Related pubchem assays: 1677 (Project Summary), 1915, 1914, 1902 (Retest at Dose), 1900 (Counter Screen), 1662 (Primary HTS)]; assay type: functional, organism-based
Leucine aminopeptidase = target: T1, Leucine aminopeptidase (Plasmodium falciparum 3D7, UniProt Q8IL11); assay: P. falciparum M17LAP inhibitors, primary screen, biochemical, fluorogenic H-Leu-NHMec substrate, 1536-well (AID 1619); assay type: functional
T1 sequence (Q8IL11 whole entry): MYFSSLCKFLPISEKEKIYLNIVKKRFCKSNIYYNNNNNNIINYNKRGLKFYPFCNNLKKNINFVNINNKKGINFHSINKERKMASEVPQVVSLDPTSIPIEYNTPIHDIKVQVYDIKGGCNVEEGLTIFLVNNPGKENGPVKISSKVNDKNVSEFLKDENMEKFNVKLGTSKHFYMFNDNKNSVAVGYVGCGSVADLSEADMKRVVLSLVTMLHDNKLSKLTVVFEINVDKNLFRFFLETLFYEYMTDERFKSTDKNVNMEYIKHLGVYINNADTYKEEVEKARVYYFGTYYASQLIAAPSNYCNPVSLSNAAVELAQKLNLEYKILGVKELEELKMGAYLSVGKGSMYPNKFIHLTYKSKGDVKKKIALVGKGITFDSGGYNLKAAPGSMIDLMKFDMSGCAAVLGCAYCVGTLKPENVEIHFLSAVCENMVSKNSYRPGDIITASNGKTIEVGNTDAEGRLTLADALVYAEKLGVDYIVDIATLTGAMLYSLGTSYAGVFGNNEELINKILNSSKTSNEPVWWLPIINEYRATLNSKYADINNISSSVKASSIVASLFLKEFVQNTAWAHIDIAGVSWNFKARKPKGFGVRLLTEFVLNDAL

[7] = Counterscreen for IDE inhibitors: Luminescence-based cell-based high throughput dose response assay to identify compounds that are cytotoxic to HEK cells. [Related pubchem assays: 434962 (Primary screen (IDE inhibitors in singlicate)), 449730 (Counterscreen (Cytotoxicity in triplicate)), 435028 (Confirmation (IDE inhibitors in triplicate)) …; assay type: functional; details: HEK293
Insulin-degrading enzyme = target: T2, Insulin-degrading enzyme (Homo sapiens, UniProt P14735); assay: Dose Response: Fluorescence polarization-based cell-based high throughput dose response assay for inhibitors of insulin-degrading enzyme (IDE). [Related pubchem assays: 434962 (Primary screen (IDE inhibitors in singlicate)), 449730 (Counterscreen (Cytotoxicity in triplicate)), 435028 (Confirmation (IDE inhibitors in triplicate)), 434984 (Summary …; assay type: functional
T2 sequence (P14735 whole entry): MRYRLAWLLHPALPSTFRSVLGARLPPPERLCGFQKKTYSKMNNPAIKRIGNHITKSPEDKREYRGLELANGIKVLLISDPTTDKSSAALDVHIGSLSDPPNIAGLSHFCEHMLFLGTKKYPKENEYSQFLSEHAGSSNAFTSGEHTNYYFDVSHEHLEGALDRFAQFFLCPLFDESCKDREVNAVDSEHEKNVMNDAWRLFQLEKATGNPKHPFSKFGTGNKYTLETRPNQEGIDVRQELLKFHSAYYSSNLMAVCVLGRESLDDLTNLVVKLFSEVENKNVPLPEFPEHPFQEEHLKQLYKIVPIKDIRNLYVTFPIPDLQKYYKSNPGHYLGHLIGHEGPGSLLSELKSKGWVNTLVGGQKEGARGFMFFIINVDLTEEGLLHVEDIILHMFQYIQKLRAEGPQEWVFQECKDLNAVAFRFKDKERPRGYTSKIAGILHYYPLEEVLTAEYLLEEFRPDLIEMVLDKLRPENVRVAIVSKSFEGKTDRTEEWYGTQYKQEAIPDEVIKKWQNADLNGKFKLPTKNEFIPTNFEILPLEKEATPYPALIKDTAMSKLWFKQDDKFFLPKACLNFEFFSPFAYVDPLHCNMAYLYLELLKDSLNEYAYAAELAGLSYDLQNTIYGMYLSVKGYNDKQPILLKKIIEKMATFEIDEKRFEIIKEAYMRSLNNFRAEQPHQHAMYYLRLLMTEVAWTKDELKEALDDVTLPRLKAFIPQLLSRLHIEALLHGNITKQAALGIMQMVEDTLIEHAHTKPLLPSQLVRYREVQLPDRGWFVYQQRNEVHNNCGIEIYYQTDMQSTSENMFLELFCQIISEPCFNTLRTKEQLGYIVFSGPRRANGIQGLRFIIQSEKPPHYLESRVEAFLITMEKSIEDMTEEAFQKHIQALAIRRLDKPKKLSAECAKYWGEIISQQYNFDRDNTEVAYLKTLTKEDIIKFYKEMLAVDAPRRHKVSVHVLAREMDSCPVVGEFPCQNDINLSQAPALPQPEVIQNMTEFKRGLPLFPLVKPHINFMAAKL

[8] = mitochondrial function rescue without frataxin homolog – Friedreich's ataxia, plus single-dose screen, dose response (AID 1465); assay type: functional;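 further: yeast depleted of Yfh1p frataxin homolog grown on glycerol needing respiration; WST-1 tetrazolium dye reduction as measure of cellular dehydrogenase metabolic activity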
Cytochrome P450 2D6 = Cytochrome P450 2D6 (Homo sapiens, UniProt P10635); assay: qHTS Assay for Inhibitors and Substrates of Cytochrome P450 2D6. [Related pubchem assays: 410 ]; assay type: ADME; details: read-out: Potency
Cytochrome P450 2D6, sequence (P10635 whole entry): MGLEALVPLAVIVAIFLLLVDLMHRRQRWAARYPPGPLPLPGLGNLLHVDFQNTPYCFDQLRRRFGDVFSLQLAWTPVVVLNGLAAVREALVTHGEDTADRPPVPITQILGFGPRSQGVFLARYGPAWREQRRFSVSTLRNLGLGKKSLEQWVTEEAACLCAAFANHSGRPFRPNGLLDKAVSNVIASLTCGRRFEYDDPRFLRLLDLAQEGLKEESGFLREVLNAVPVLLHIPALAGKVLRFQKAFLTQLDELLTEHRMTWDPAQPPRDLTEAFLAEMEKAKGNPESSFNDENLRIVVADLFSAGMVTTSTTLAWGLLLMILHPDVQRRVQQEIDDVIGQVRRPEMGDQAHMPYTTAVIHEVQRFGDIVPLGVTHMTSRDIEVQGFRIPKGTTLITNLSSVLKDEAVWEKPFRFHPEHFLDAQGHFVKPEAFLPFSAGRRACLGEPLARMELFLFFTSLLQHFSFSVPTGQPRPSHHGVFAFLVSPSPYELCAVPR

[9] = system: Streptococcus sp. 'group A'; assay: Streptococcus pyogenes SK(-)GAS viability under kanamycin – luminescence, BacTiterGlo, confirmation, counter-screen for streptokinase expression inhibitor project, dose response (AID 1900); assay type: functional, organism-based
[10] = antiviral protection against BTV-induced cell death – arbovirus, BSR cells, confirmation (AID 1250); assay type: functional;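 further: protection from viral cytopathic effect measured as cell viability by ATP luminescence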
[11] = viability loss of HPDE-C7K cells – cell-based, fluorescence, HTS, primary screen (AID 431); assay type: functional; details: Homo sapiens
[12] = HPDE-C7 pancreatic duct cell viability loss – fluorescence, HTS (AID 430); assay type: functional, cell-based; details: Homo sapiens
Streptococcus [13] = assay: GAS UMAA2166 growth inhibition – luminescence, BacTiterGlo, counter-screen for streptokinase expression inhibitor project, dose response (AID 1915); assay type: functional, organism-based;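 further: potency for reduction of bacterial viability or growth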
[14] = target: Muscarinic acetylcholine receptor M2 (Homo sapiens, UniProt P08172); assay: Discovery of novel allosteric modulators of the M1 muscarinic receptor: Agonist NMS competition at M2. [Related pubchem assays: 626 (Discovery of Novel Allosteric Modulators of the M1 Muscarinic Receptor: Agonist Primary Screen), 1488 (Discovery of novel allosteric modulators of the M1 muscarinic receptor: Agonist Confirmation Assay)]; assay type: functional
Muscarinic acetylcholine receptor M2, sequence (P08172 whole entry): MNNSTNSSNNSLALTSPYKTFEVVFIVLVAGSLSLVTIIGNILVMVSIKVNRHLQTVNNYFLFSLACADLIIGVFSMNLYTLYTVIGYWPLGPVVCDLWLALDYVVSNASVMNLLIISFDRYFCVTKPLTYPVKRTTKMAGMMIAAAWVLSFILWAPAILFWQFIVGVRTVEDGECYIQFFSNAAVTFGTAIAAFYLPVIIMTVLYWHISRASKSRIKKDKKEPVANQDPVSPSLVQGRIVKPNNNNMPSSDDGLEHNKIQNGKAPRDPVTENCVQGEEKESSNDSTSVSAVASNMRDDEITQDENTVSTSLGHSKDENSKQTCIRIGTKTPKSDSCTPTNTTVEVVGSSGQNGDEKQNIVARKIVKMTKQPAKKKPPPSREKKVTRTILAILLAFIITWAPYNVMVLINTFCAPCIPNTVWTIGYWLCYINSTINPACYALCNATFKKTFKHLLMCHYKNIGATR

[15] = target: Muscarinic acetylcholine receptor M3 (Homo sapiens, UniProt P20309); assay: (§1) Discovery of novel allosteric modulators of the M1 muscarinic receptor: Agonist NMS competition at M3. [Related pubchem assays: 1488 (Discovery of novel allosteric modulators of the M1 muscarinic receptor: Agonist Confirmation Assay), 626 (Discovery of Novel Allosteric Modulators of the M1 Muscarinic Receptor: Agonist Primary Screen)]; assay type: functional
Muscarinic acetylcholine receptor M3, sequence (P20309 whole entry): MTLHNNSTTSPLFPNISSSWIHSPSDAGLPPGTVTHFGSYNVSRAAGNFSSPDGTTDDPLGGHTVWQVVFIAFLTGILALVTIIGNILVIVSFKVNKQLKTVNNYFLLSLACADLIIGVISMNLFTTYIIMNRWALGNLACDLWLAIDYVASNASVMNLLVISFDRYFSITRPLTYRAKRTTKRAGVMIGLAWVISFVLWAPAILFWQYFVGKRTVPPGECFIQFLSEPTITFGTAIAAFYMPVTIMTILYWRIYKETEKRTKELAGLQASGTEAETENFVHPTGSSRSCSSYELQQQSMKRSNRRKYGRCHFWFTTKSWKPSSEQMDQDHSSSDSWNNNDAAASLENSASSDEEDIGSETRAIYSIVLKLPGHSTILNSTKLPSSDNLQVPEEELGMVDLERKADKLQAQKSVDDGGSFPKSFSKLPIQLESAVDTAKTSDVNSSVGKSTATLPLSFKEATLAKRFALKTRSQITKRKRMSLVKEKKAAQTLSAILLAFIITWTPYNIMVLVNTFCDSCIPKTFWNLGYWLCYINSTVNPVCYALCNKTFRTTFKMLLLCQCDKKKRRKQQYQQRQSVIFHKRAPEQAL

[16] = target: Muscarinic acetylcholine receptor M4 (Rattus norvegicus, UniProt P08485); assay: Discovery of novel allosteric modulators of the M1 muscarinic receptor: Agonist NMS competition at M4. [Related pubchem assays: 626, 1488, 1741 ]; assay type: functional
Muscarinic acetylcholine receptor M4, sequence (P08485 whole entry): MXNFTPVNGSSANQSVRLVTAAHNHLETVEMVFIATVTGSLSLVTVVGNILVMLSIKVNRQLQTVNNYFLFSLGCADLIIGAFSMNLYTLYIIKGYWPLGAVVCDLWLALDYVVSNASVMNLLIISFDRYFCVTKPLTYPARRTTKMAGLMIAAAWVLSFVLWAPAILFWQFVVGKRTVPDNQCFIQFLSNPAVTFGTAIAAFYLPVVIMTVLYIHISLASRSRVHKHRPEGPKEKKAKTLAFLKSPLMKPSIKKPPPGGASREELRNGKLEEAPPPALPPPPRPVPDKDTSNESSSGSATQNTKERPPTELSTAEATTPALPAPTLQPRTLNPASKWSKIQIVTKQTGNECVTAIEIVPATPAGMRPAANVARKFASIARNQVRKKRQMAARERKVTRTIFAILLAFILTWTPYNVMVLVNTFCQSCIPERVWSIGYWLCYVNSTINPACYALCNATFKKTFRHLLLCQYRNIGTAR

[17] = target: Muscarinic acetylcholine receptor M5 (Homo sapiens, UniProt P08912); assay: as §1, with “M5.” for “M3.”; assay type: functional
Muscarinic acetylcholine receptor M5, sequence (P08912 whole entry): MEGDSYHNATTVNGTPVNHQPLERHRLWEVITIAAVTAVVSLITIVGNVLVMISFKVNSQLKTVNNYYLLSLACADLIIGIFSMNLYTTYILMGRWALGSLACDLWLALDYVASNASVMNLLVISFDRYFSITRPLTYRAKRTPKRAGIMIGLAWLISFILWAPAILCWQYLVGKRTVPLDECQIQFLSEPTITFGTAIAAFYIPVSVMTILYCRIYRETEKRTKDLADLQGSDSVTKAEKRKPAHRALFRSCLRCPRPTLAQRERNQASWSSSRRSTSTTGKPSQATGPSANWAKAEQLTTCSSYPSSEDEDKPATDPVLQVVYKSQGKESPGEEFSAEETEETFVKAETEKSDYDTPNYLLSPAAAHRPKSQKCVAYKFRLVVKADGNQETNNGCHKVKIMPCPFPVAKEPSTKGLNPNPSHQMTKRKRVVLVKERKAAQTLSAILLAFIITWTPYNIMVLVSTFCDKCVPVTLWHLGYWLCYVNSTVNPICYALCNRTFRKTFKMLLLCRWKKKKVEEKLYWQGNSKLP

[18] = target: Muscarinic acetylcholine receptor M1 (Rattus norvegicus, UniProt P08482); assay: Discovery of novel allosteric modulators of the M1 muscarinic receptor: Agonist NMS binding at M1. [Related pubchem assays: 626 ]
Muscarinic acetylcholine receptor M1, sequence (P08482 whole entry): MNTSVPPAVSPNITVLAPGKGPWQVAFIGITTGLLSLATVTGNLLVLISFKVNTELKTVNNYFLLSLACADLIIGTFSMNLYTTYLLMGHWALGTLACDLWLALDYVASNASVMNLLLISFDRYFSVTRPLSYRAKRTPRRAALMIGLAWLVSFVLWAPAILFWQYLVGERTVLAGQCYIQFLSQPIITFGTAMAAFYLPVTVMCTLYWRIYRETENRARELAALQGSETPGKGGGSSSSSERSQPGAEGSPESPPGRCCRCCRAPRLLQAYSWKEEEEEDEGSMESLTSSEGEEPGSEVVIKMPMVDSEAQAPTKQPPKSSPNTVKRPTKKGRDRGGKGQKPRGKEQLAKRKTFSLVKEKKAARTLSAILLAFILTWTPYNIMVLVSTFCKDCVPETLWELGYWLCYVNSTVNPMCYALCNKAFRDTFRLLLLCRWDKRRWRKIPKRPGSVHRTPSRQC

Protein skinhead-1 = target: T3, Protein skinhead-1 (Caenorhabditis elegans, UniProt P34707); assay type: functional
T3 sequence (P34707 whole entry): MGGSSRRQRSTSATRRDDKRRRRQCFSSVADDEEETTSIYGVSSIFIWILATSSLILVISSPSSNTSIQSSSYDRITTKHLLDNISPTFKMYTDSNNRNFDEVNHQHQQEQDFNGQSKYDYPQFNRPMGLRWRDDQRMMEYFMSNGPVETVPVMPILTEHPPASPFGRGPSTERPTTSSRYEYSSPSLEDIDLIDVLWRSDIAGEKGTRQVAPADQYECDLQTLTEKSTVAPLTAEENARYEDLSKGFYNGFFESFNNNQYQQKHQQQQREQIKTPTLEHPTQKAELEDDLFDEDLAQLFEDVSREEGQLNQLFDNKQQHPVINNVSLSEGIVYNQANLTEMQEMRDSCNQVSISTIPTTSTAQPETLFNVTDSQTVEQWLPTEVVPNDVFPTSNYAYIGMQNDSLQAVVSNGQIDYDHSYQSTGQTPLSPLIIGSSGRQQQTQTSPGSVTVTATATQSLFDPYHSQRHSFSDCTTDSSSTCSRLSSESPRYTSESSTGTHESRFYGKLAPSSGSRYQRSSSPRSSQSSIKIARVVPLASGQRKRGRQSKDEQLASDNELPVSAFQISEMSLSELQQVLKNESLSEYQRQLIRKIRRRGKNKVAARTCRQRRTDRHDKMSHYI

[19] = target: T4, Microphthalmia-associated transcription factor (Homo sapiens, UniProt O75030); assay: reducers of TRPM1 reporter luminescence, concentration series – cell-based, SK-MEL-5, cherry-picked, set 3, MITF inhibitor project, dose response (AID 493073); assay type: functional;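 further: SK-MEL-5 melanoma cells with luciferase driven by the MITF target TRPM1 promoter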
T4 sequence (O75030 whole entry): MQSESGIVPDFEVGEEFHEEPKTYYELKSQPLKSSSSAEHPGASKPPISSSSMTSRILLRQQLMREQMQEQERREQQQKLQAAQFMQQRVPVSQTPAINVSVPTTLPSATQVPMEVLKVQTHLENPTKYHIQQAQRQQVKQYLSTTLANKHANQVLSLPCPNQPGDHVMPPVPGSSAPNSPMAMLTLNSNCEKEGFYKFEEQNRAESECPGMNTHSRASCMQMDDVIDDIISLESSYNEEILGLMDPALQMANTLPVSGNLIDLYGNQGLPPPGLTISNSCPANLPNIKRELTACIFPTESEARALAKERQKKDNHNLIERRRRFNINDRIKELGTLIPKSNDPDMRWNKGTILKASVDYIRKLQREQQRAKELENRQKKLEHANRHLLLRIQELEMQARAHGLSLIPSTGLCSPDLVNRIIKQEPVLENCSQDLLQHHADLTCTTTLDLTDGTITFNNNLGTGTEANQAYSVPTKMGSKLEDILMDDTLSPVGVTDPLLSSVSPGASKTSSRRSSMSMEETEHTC

[20] = target: Photoreceptor-specific nuclear receptor (Homo sapiens, UniProt Q9Y5X4); assay type: functional, cell-based;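 further: CHO-S cells with Gal4-NCOR and VP16-NR2E3 two-hybrid luciferase reporter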
Photoreceptor-specific nuclear receptor, sequence (Q9Y5X4 whole entry, the tested form may be a part): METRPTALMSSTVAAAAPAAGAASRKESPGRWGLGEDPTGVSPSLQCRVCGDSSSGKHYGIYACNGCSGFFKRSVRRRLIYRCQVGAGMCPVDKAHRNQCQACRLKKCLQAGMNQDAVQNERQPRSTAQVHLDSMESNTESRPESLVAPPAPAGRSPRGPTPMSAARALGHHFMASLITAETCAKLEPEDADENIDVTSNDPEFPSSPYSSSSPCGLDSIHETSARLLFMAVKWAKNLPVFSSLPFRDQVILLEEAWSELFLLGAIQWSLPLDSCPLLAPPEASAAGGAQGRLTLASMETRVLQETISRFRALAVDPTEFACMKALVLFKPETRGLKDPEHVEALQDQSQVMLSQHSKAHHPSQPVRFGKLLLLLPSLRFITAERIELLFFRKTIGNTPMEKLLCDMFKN

[21] = Luminescence-based counterscreen assay for KLF5 inhibitors: dose response cell-based high throughput screening assay to identify cytotoxic compounds using the IEC-6 intestinal epithelial cell line. [Related pubchem assays: 1700 (Primary screen.), 1834 (Confirmation screen.), 1858 (Summary AID.), 1905 (Counterscreen.)]; assay type: functional
[22] = Shn3 3'UTR reporter signal decrease – cell-based, Clone20 osteoblasts, firefly luciferase, cherry-pick, set 2, Schnurri-3 inhibitor project, dose response (AID 720490); assay type: functional;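 further: actives lower the luminescence signal as inhibitors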
[23] = reduction of Shn3 3'UTR-driven luciferase in osteoblasts – cell-based, Clone20 osteoblasts, firefly luciferase, cherry-picked, dose response (AID 624132); assay type: functional;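 further: firefly luciferase luminescence from reporter carrying the Shn3 3'UTR in osteoblasts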
[24] = loss of viability in HepG2 cells – cell-based, CellTiter-Glo, cherry-picked, cytotoxicity control for Shn3 inhibitor project, dose response (AID 624134); assay type: functional

Compound: O=C(CSc1nnc(SCc2ccccc2)s1)N/N=C/c1ccc(Cl)cc1Cl
- CC50 [1]: 38.4 µM (active)

Compound: O=c1c2c(-c3ccco3)csc2nc(SCc2cn3cccnc3n2)n1-c1ccccc1
- EC50 [2]: 38.5 µM (active)
- EC50 [3]: > 120 µM (not active)
- CC50 [4]: > 40 µM (active)
- IC50 (NS3): 49.7 µM (not active)
- EC50 [5]: 13.9 µM (active)

Compound: CN(C)C1C(=O)C(C(N)=O)C(=O)C2(O)C(=O)C3C(=O)c4c(O)cccc4C(C)(O)C3CC12 (centres undefined)
- EC50 (Streptococcus [6]): 0.402 µM (active)

Compound: C=CCN1C=CC(=CC=C(C#N)C#N)C=C1
- IC50 (Leucine aminopeptidase): 72.2 µM (active)
- IC50 [7]: > 55.7 µM (not active)
- IC50 (Insulin-degrading enzyme): 10.4 µM (not active)
- EC50 [8]: > 100 µM (active)

Compound: CCOC(=O)OCC1OC(C#Cc2ccccc2)C=CC1Oc1cccc(N(C)C)c1 (centres undefined)
- AC50 (Cytochrome P450 2D6): 3.98 µM (inconclusive)

Compound: CCOC(=O)C1=Nc2ccccc2C1=[N+]=[N-]
- EC50 [9]: 0.379 µM (active)
- IC50 [10]: 21.4 µM (active)
- EC50 [11]: 7.83 µM (active)
- EC50 [12]: 19.9 µM (active)
- EC50 (Streptococcus [13]): 2.27 µM (active)

Compound: CCOC(=O)N1CCC(NCCNC(=O)c2ccccc2C)CC1
- EC50 [14]: 95.7 µM (inconclusive)
- EC50 [15]: 360 µM (inconclusive)
- EC50 [16]: 240 µM (inconclusive)
- EC50 [17]: 24.1 µM (inconclusive)
- EC50 [18]: 25.1 µM (inconclusive)

Compound: CC(C)(C)C(=O)Nc1cc2nn(-c3ccccc3)nc2cc1Cl
- IC50 (Protein skinhead-1): > 100 µM (inactive)
- AC50 [19]: 0.495 µM (active)
- IC50 [20]: 0.152 µM (active)
- IC50 [21]: > 39.8 µM (not active)
- AC50 [22]: 49.5 µM (active)
- AC50 [23]: 5.16 µM (active)
- AC50 [24]: > 70 µM (inactive)
